pIC50: −log10 of the molar value. Where a name gives a salt, the structure may show the parent alone.

Our source for the IC50 values is patent publication US20220073536A1 (Rigel Pharmaceuticals, Inc., priority 2003, published 2022).

For test [1], the system named is cultured human mast cells (CHMC). As to the kind of experiment: CHMC low cell density IgE activation: tryptase assay. As to conditions: IgE activation. In kind it is cell-based. The method, boiled down: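 Fluorogenic readout of tryptase released into the supernatant (30 min substrate incubation, room temperature) measures degranulation. Cells were plated at low density (1000–1500/well, varied by donor) and triggered with anti-IgE for 30 min at 37 °C.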

Test [2] has the same test system. Description: CHMC low cell density ionomycin activation: tryptase assay. In kind it is cell-based. As to conditions: read-out: LD Tryptase, CHMC, Iono, 3 pt.
Setting [3] is: Homo sapiens, Mast cell, low cell density CHMC, tryptase, 3 pt, read-out: LD Tryptase, CHMC, IgE, 3 pt.
The mark [4] stands for this setting: Homo sapiens, Mast cell, low cell density CHMC, tryptase, 3 pt.
The mark [5] stands for this setting: Homo sapiens, Mast cell, low cell density CHMC, tryptase release, 3 pt, read-out: LD Tryptase, CHMC, IgE, 3 pt.
Setting [6] is: Homo sapiens, Mast cell, low cell density CHMC, tryptase release, 8 pt, read-out: LD Tryptase, CHMC, IgE, 8 pt.
[7] abbreviates: Homo sapiens, Mast cell, low cell density CHMC, tryptase release, 3 pt.
Where [8] appears, read: low cell density CHMC, tryptase readout, 3 pt, read-out: LD Tryptase, CHMC, IgE, 3 pt.
Setting [9] is: low cell density CHMC, tryptase readout, 8 pt, read-out: LD Tryptase, CHMC, IgE, 8 pt.
The mark [10] stands for this setting: low cell density CHMC, tryptase readout, 3 pt.
Setting [11] is: Homo sapiens, Mast cell, low cell density, 3 pt, read-out: LD Tryptase, CHMC, IgE, 3 pt.
Setting [12] is: Homo sapiens, Mast cell, low cell density, 3 pt.
The mark [13] stands for this setting: low cell density CHMC, tryptase release, 3 pt, read-out: LD Tryptase, CHMC, IgE, 3 pt.
Where [14] appears, read: low cell density CHMC, tryptase release, 8 pt, read-out: LD Tryptase, CHMC, IgE, 8 pt.
Where [15] appears, read: low cell density CHMC, tryptase release, 3 pt.
The mark [16] stands for this setting: low cell density CHMC, tryptase release, 3 point, read-out: LD Tryptase, CHMC, IgE, 3 pt.
Setting [17] is: low cell density CHMC, tryptase release, 3 point.
The mark [18] stands for this setting: low cell density CHMC, tryptase release, 8 point, read-out: LD Tryptase, CHMC, IgE, 8 pt.

`Cc1cc(C)cc(Nc2ncc(F)c(N(C)c3ccc4c(c3)OCCO4)n2)c1` [Compound 387]: the pIC50 in test [1] (setting [3]) is more than 5.00; in test [2] (setting [4]), less than 5.00.

With `O=C1Nc2cc(Nc3nc(Nc4ccc(-c5ncco5)cc4)ncc3F)ccc2OC1CCO` (centres unmarked) [Compound 242], the pIC50 was more than 5.00 in test [1] (setting [5]), more than 5.00 in test [1] (setting [6]) and less than 5.00 in test [2] (setting [7]).

With `CNS(=O)(=O)c1ccc(Nc2nc(Cl)ncc2F)cc1OC` [Compound 502, 2-Chloro-5-fluoro-N4-[4-(N-methylamino)sulfonyl-3-methoxyphenyl]-2,4-pyrimidineamine], the pIC50 in test [1] (low cell density, 3 pt, read-out: LD Tryptase, CHMC, IgE, 3 pt) was less than 5.00; in test [2] (low cell density, 3 pt), less than 5.00.

As for `CC(C)(C)OC(=O)NCC(=O)NCc1ccc(Nc2ncc(F)c(Nc3ccc(Cl)c(Cl)c3)n2)cc1` [Compound 1310, N2-[4-[1-(tert-Butoxycarbonylamino)methylenecarbonylamino]methylphenyl]-N4-(3,4-dichlorophenyl)-5-fluoro-2,4-pyrimidinediamine], the pIC50 in test [1] (low cell density CHMC, tryptase, 3 pt, read-out: LD Tryptase, CHMC, IgE, 3 pt) is more than 5.00; in test [1] (low cell density CHMC, tryptase, 8 pt, read-out: LD Tryptase, CHMC, IgE, 8 pt), more than 5.00; in test [2] (low cell density CHMC, tryptase, 3 pt), more than 5.00.

With `Cn1ncc2ccc(Nc3ncc(F)c(Nc4ccc5c(n4)NC(=O)C(C)(C)O5)n3)cc21` [Compound 1057, N4-(2,2-Dimethyl-3-oxo-4H-5-pyrid[1,4]oxazin-6-yl)-5-fluoro-N2-[1-methylindazol-6-yl]-2,4-pyrimidinediamine p-Toluenesulfonic Acid Salt], the pIC50 in test [1] (setting [8]) was more than 5.00; in test [1] (setting [9]) it was more than 5.00; in test [2] (setting [10]), less than 5.00.

Consider `C[C@@H]1Oc2ccc(Nc3nc(Nc4ccc5c(cnn5CCCNS(C)(=O)=O)c4)ncc3F)cc2NC1=O` [Compound 835, (S)-5-Fluoro-N4-(2-methyl-3-oxo-2H,4H-benz[1,4]oxazin-6-yl)-N2-[1-(3-(N-methylsulfonylamino)propyl)indazol-5-yl]-2,4-pyrimidinediamine], for which the pIC50 in test [1] (setting [5]) was more than 5.00; in test [1] (setting [6]), more than 5.00; in test [2] (setting [7]) it was less than 5.00.

On to `Fc1cnc(Nc2ccc(N3CCOCC3)cc2)nc1NC1CCCC1` [Compound 1155, N4-Cyclopentyl-5-fluoro-N2-(4-morpholinophenyl)-2,4-pyrimidinediamine], for which the figures for the pIC50 in test [1] (setting [3]) and in test [2] (setting [4]) were more than 5.00 and less than 5.00, respectively.

`CNC(=O)COc1cccc(Nc2ncc(F)c(Nc3ccc4c(n3)NCC(C)(C)O4)n2)c1` [Compound 1053, N4-(3,4-Dihydro-2,2-dimethyl-4H-5-pyrid[1,4]oxazin-6-yl)-5-fluoro-N2-[3-(N-methylamino)carbonylmethyleneoxyphenyl]-2,4-pyrimidinediamine]: the pIC50 was more than 5.00 in test [1] (setting [8]), more than 5.00 in test [1] (setting [9]) and less than 5.00 in test [2] (setting [10]).

Turning to `CCOC(=O)N1CCN(c2cccc(Nc3ncc(F)c(NC4CCC4)n3)c2)CC1` [Compound 1109, N4-Cyclobutyl-N2-[3-(4-ethoxycarbonylpiperazino)pheny]-5-fluoro-2,4-pyrimidinediamine], the pIC50 in test [1] (setting [8]) was more than 5.00; in test [2] (setting [10]), less than 5.00.

On to `Cc1cc(Nc2ncc(F)c(Nc3ccc4c(n3)NC(=O)C(C)(C)O4)n2)cc(Cl)c1OC1CCCC1` [Compound 1027, N2-(3-Chloro-4-cyclopentyloxy-5-methylphenyl)-N4-(2,2-dimethyl-3-oxo-4H-5-pyrid[1,4]oxazin-6-yl)-5-fluoro-2,4-pyrimidinediamine], for which the pIC50 is more than 5.00 in test [1] (setting [8]) and less than 5.00 in test [2] (setting [10]).

`COc1ccc(Nc2ncc(F)c(Nc3ccc4c(c3)OCCO4)n2)c(OC)n1` [Compound 460]: the figures for the pIC50 in test [1] (setting [11]) and in test [2] (setting [12]) were more than 5.00 and less than 5.00, respectively.

For `CC1(C)COc2ccc(Nc3nc(Nc4cccc(-c5cnco5)c4)ncc3F)cc2N1` [Compound 233, N4-(3,4-Dihydro-3,3-dimethyl-2H,4H-benz[1,4]oxazin-6-yl)-5-fluoro-N2-[3-(oxazol-5-yl)phenyl]-2,4-pyrimidinediamine], the pIC50 in test [1] (setting [13]) is more than 5.00; in test [1] (setting [14]), more than 5.00; in test [2] (setting [15]) it was less than 5.00.

In the case of `COc1cc(Nc2ncc(F)c(Nc3ccc4c(c3)NCC(CCO)O4)n2)cc(OC)c1` (centres unmarked) [Compound 253, N4-[3,4-Dihydro-2-(2-hydroxyethyl)-2H,4H-benz[1,4]oxazin-6-yl]-N2-(3,5-dimethoxyphenyl)-5-fluoro-2,4-pyrimidinediamine], the results for the pIC50 in test [1] (setting [13]), in test [1] (setting [14]) and in test [2] (setting [15]) were more than 5.00, more than 5.00 and less than 5.00, respectively.

For `CCn1ncc2ccc(Nc3ncc(F)c(Nc4ccc5c(c4)NC(=O)C(C)(C)O5)n3)cc21` [Compound 700, N4-(2,2-Dimethyl-3-oxo-4H-benz[1,4]oxazin-6-yl)-N2-(1-ethylindazol-6-yl)-5-fluoro-2,4-pyrimidinediamine], the pIC50 is more than 5.00 in test [1] (setting [3]); more than 5.00 in test [1] (Homo sapiens, Mast cell, low cell density CHMC, tryptase, 8 pt, read-out: LD Tryptase, CHMC, IgE, 8 pt); more than 5.00 in test [2] (setting [4]).

`CN(c1ccc2c(c1)OC(F)(F)C(F)(F)O2)c1nc(Cl)ncc1F` [Compound 627]: the pIC50 in test [1] (setting [16]) and in test [2] (setting [17]) was less than 5.00 throughout.

Turning to `COc1cc(Nc2ncc(F)c(Nc3ccc(OCCO)c(Cl)c3)n2)ccc1Cl` [Compound 624, N4-[3-Chloro-4-(2-hydroxyethyleneoxy)phenyl]-N2-(4-chloro-3-methoxyphenyl)-5-fluoro-2,4-pyrimidinediamine], the values for the pIC50 in test [1] (setting [16]), in test [1] (setting [18]) and in test [2] (setting [17]) were more than 5.00, more than 5.00 and less than 5.00, respectively.

For the compound `CNC(=O)c1cc(Nc2ncc(F)c(Nc3ccc4c(c3)NC(=O)C(C)(C)O4)n2)ccc1Cl` [Compound 455], the pIC50 in test [1] (setting [11]) was more than 5.00; in test [1] (Homo sapiens, Mast cell, low cell density, 8 pt, read-out: LD Tryptase, CHMC, IgE, 8 pt) it was more than 5.00; in test [2] (setting [12]), less than 5.00.

`CC(C)(C)c1cc(Nc2nc(Nc3cccc(N4CCOCC4)c3)ncc2F)n[nH]1` [Compound 1090]: the pIC50 in test [1] (Homo sapiens, Mast cell, low cell density CHMC, tryptase readout, 3 pt, read-out: LD Tryptase, CHMC, IgE, 3 pt) was more than 5.00; in test [1] (Homo sapiens, Mast cell, low cell density CHMC, tryptase readout, 8 pt, read-out: LD Tryptase, CHMC, IgE, 8 pt) it was more than 5.00; in test [2] (Homo sapiens, Mast cell, low cell density CHMC, tryptase readout, 3 pt), less than 5.00.

Consider `CNC(=O)COc1ccc(Nc2nc(Nc3ccc4cc[nH]c4c3)ncc2F)cc1Cl` [Compound 605, N4-[3-Chloro-4-(N-methylamino)carbonylmethyleneoxyphenyl]-5-fluoro-N2-(indol-6-yl)-2,4-pyrimidinediamine], for which the pIC50 in test [1] (setting [16]) is more than 5.00; in test [1] (setting [18]), more than 5.00; in test [2] (setting [17]), less than 5.00.

Consider `COCCCn1ncc2ccc(Nc3ncc(F)c(Nc4ccc5c(c4)NC(=O)[C@H](C)O5)n3)cc21` [Compound 799, (S)-5-Fluoro-N2-[1-(3-methoxypropyl)indazol-6-yl]-N4-(2-methyl-3-oxo-2H,4H-benz[1,4]oxazin-6-yl)-2,4-pyrimidinediamine], for which the pIC50 in test [1] (setting [5]) is more than 5.00; in test [1] (setting [6]), more than 5.00; in test [2] (setting [7]), less than 5.00.

Take `CNC(=O)COc1ccc(Nc2nc(Nc3ccc4[nH]ccc4c3)ncc2F)cc1Cl` [Compound 625, N4-[3-Chloro-4-(N-methylamino)carbonylmethyleneoxyphenyl]-5-fluoro-N2-(indol-5-yl)-2,4-pyrimidinediamine]: the pIC50 in test [1] (setting [16]), in test [1] (setting [18]) and in test [2] (setting [17]) was more than 5.00 in each case.

Turning to `COCCn1ncc2ccc(Nc3ncc(F)c(Nc4ccc(OC)c(Cl)c4)n3)cc21` [Compound 776, N4-(3-Chloro-4-methoxyphenyl)-5-fluoro-N2-[1-(2-methoxyethyl)indazol-6-yl]-2,4-pyrimidinediamine], the figures for the pIC50 in test [1] (setting [5]), in test [1] (setting [6]) and in test [2] (setting [7]) were more than 5.00, more than 5.00 and less than 5.00, respectively.

For `CN1C(=O)C(C)(C)Oc2ccc(Nc3nc(Nc4cccc(-c5ncco5)c4)ncc3F)nc21` [Compound 1012, 5-Fluoro-N2-[3-(oxazol-2-yl)phenyl]-N4-[3-oxo-2,2,4-trimethyl-5-pyrid[1,4]oxazin-6-yl]-2,4-pyrimidinediamine], the pIC50 in test [1] (setting [8]) was more than 5.00; in test [1] (setting [9]), more than 5.00; in test [2] (setting [10]) it was less than 5.00.
